This note sets out measurements from patent US11203571B2, “Sulfonamides as modulators of sodium channels” (VERTEX PHARMACEUTICALS INCORPORATED, priority 2013, dated 2021).

The structures appear in SMILES notation.

Data set [1] can be described thus: Human liver microsome assay. It is filed as in vitro ADME. The settings on record: 1 uM substrate, 0.5 mg/mL liver microsome, 2 mM NADPH, 37° C., referenced against time zero control. How it is done:
Human Liver Microsome Assay Protocol
Liver microsomal stability data were generated as follows. Substrates were incubated at 37° C. and shaken for 30 minutes in a phosphate buffered solution with human liver microsomes and the cofactor NADPH. A time zero control was similarly prepared, however with NADPH excluded. The final incubation concentrations were 1 uM substrate (0.2% DMSO), 0.5 mg/mL liver microsome, 2 mM NADPH, and 0.1 M phosphate. Reactions were quenched and proteins precipitated with the addition of 2 volume equivalents of ice cold acetonitrile containing an internal standard. Following a centrifugation step, aliquots from the quenched incubations were further diluted with 4 volume equivalents of a 50% aqueous methanol solution and then subjected to LC/MS/MS analysis for quantitation of parent substrate. Microsome stability values were calculated as the percent of substrate remaining after 30 minutes referenced against the time zero control.

For the next data set, the target named is human Nav1.8 (Homo sapiens (Human), UniProt Q9Y5Y9). Nature of the data set: E-VIPR optical membrane potential assay with electrical stimulation. It is filed as cell-based. The settings on record: HEK cells expressing human Nav1.8. The text has this:
E-VIPR Optical Membrane Potential Assay Method with Electrical Stimulation
Sodium channels are voltage-dependent proteins that can be activated by inducing membrane voltage changes by applying electric fields. The electrical stimulation instrument and methods of use are described in Ion Channel Assay Methods PCT/US01/21652, herein incorporated by reference and are referred to as E-VIPR. The instrument comprises a microtiter plate handler, an optical system for exciting the coumarin dye while simultaneously recording the coumarin and oxonol emissions, a waveform generator, a current- or voltage-controlled amplifier, and a device for inserting electrodes in well. Under integrated computer control, this instrument passes user-programmed electrical stimulus protocols to cells within the wells of the microtiter plate.
24 hours before the assay on E-VIPR, HEK cells expressing human Nav1.8 were seeded in 384-well poly-lysine coated plates at 15,000-20,000 cells per well. HEK cells were grown in media (exact composition is specific to each cell type and NaV subtype) supplemented with 10% FBS (Fetal Bovine Serum, qualified; GibcoBRL #16140-071) and 1% Pen-Strep (Penicillin-Streptomycin; GibcoBRL #15140-122). Cells were grown in vented cap flasks, in 90% humidity and 5% CO2.
• 100 mg/mL Pluronic F-127 (Sigma #P2443), in dry DMSO • Compound Plates: 384-well round bottom plate, e.g. Corning 384-well Polypropylene Round Bottom #3656 • Cell Plates: 384-well tissue culture treated plate, e.g. Greiner #781091-1B • 10 mM DiSBAC6(3) (Aurora #00-100-010) in dry DMSO • 10 mM CC2-DMPE (Aurora #00-100-008) in dry DMSO • 200 mM ABSC1 in H20
Bath1 buffer: Glucose 10 mM (1.8 g/L), Magnesium Chloride (Anhydrous), 1 mM (0.095 g/L), Calcium Chloride, 2 mM (0.222 g/L), HEPES 10 mM (2.38 g/L), Potassium Chloride, 4.5 mM (0.335 g/L), Sodium Chloride 160 mM (9.35 g/L).
Hexyl Dye Solution: Bath1 Buffer+0.5% β-cyclodextrin (make this prior to use, Sigma #C4767), 8 μM CC2-DMPE+2.5 μM DiSBAC6(3). To make the solution Added volume of 10% Pluronic F127 stock equal to volumes of CC2-DMPE+DiSBAC6(3). The order of preparation was first mix Pluronic and CC2-DMPE, then added DiSBAC6(3) while vortexing, then added Bath1+β-Cyclodextrin.
1) Pre-spotted compounds (in neat DMSO) into compound plates. Vehicle control (neat DMSO), the positive control (20 mM DMSO stock tetracaine, 125 μM final in assay) and test compounds were added to each well at 160× desired final concentration in neat DMSO. Final compound plate volume was 80 μL (80-fold intermediate dilution from 1 μL DMSO spot; 160-fold final dilution after transfer to cell plate). Final DMSO concentration for all wells in assay was 0.625%.
2) Prepared Hexyl Dye Solution.
3) Prepared cell plates. On the day of the assay, medium was aspirated and cells were washed three times with 100 μL of Bath1 Solution, maintaining 25 μL residual volume in each well.
4) Dispensed 25 μL per well of Hexyl Dye Solution into cell plates. Incubated for 20-35 minutes at room temp or ambient conditions.
5) Dispensed 80 μL per well of Bath1 into compound plates. Acid Yellow-17 (1 mM) was added and Potassium Chloride was altered from 4.5 to 20 mM depending on the NaV subtype and assay sensitivity.
6) Washed cell plates three times with 100 μL per well of Bath1, leaving 25 μL of residual volume. Then transferred 25 uL per well from Compound Plates to Cell Plates. Incubated for 20-35 minutes at room temp/ambient condition.
7) Read Plate on E-VIPR. Used the current-controlled amplifier to deliver stimulation wave pulses for 10 seconds and a scan rate of 200 Hz. A pre-stimulus recording was performed for 0.5 seconds to obtain the un-stimulated intensities baseline. The stimulatory waveform was followed by 0.5 seconds of post-stimulation recording to examine the relaxation to the resting state.
Data was analyzed and reported as normalized ratios of emission intensities measured in the 460 nm and 580 nm channels. […]

human Nav1.8, sequence (Q9Y5Y9 whole entry): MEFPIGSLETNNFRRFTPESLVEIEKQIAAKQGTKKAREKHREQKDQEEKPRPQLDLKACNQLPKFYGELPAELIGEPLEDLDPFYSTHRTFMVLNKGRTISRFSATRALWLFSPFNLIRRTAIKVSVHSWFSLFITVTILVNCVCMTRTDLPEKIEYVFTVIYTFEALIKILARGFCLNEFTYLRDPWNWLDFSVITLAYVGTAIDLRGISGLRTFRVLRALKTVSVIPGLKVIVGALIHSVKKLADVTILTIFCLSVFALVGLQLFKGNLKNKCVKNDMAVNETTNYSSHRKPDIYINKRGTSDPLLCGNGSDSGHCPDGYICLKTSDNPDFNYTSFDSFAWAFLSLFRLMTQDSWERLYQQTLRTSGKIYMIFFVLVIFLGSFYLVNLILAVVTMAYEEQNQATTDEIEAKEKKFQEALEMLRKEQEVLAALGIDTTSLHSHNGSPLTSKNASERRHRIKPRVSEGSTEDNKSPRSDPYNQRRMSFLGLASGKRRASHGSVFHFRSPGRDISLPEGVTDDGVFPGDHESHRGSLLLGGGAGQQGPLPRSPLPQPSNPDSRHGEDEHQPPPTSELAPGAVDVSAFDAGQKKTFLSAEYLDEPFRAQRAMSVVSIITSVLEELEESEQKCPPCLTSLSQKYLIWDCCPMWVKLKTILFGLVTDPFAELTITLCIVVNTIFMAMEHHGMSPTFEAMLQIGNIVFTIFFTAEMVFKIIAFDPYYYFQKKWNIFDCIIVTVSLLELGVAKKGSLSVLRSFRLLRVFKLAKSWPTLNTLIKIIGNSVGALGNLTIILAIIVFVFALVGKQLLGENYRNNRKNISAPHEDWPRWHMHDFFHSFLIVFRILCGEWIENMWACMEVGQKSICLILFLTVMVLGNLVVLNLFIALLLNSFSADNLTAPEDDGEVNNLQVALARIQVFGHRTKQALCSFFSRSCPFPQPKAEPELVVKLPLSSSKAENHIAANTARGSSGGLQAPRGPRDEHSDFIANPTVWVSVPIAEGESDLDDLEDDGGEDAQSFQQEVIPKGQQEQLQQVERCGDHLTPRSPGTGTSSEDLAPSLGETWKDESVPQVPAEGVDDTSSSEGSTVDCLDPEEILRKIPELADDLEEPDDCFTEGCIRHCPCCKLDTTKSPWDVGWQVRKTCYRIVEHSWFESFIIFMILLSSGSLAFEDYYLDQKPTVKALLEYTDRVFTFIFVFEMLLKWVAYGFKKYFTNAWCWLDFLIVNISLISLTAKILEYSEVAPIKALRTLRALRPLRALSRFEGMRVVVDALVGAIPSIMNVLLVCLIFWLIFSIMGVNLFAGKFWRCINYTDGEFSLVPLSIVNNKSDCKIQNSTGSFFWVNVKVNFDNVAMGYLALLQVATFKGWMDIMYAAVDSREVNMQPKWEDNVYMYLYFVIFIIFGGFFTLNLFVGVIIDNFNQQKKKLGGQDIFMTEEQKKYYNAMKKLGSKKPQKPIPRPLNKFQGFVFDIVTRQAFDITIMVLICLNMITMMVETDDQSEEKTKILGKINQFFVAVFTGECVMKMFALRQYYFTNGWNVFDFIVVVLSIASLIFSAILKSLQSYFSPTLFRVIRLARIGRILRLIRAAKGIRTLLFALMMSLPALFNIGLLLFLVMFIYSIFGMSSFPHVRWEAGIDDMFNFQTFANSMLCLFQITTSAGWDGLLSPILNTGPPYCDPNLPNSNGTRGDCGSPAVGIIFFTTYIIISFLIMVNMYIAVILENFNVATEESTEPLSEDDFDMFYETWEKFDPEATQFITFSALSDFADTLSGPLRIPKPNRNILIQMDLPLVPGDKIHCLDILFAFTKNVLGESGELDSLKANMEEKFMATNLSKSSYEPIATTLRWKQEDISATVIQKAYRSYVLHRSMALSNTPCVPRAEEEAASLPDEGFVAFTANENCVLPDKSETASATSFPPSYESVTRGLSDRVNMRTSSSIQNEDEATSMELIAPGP

Consider `NS(=O)(=O)c1cccc(NC(=O)c2cc(C(F)(F)F)ccc2Oc2ccc(OC(F)F)cc2)c1` [Compound 41, 2-(4-(difluoromethoxy)phenoxy)-N-(3-sulfamoylphenyl)-5-(trifluoromethyl)benzamide], for which the “HLM: percent unchanged after 30 min” value in data set [1] is on record as 95%. In addition, at human Nav1.8, it took 22 nM to reach half-maximal inhibition (IC50).

Regarding `COc1cc(Cl)ccc1Oc1cc(C(F)(F)F)ccc1C(=O)Nc1cccc(S(N)(=O)=O)c1` [Compound 42, 2-(4-chloro-2-methoxyphenoxy)-N-(3-sulfamoylphenyl)-4-(trifluoromethyl)benzamide], the “HLM: percent unchanged after 30 min” value in data set [1] stood at 84%. Moreover, 10 nM corresponded to half-maximal inhibition against human Nav1.8 (IC50).

Turning to `COc1ccc(Oc2cc(C(F)(F)F)ccc2C(=O)Nc2cccc(S(N)(=O)=O)c2)cc1F` [Compound 43, 2-(3-fluoro-4-methoxyphenoxy)-N-(3-sulfamoylphenyl)-4-(trifluoromethyl)benzamide], the “HLM: percent unchanged after 30 min” value in data set [1] amounted to 90%. At human Nav1.8, this molecule gave an IC50 of 21 nM.

Consider `COc1ccccc1Oc1cc(C(F)(F)F)ccc1C(=O)Nc1cccc(S(N)(=O)=O)c1` [Compound 44, 2-(2-methoxyphenoxy)-N-(3-sulfamoylphenyl)-4-(trifluoromethyl)benzamide], for which the “HLM: percent unchanged after 30 min” value in data set [1] came to 79%. Besides, at human Nav1.8, the IC50 came to 20 nM.

`CCOc1ccc(Oc2cc(C(F)(F)F)ccc2C(=O)Nc2cccc(S(N)(=O)=O)c2)cc1` [Compound 45, 2-(4-ethoxyphenoxy)-N-(3-sulfamoylphenyl)-4-(trifluoromethyl)benzamide]: the “HLM: percent unchanged after 30 min” value in data set [1] is recorded as 72%. Also, inhibition against human Nav1.8 was half-maximal at 21 nM (IC50).

`CCCOc1ccccc1Oc1cc(C(F)(F)F)ccc1C(=O)Nc1cccc(S(N)(=O)=O)c1` [Compound 46, 2-(2-propoxyphenoxy)-N-(3-sulfamoylphenyl)-4-(trifluoromethyl)benzamide]: the “HLM: percent unchanged after 30 min” value in data set [1] is recorded as 67%. On human Nav1.8, this molecule returned a half-maximal inhibitory concentration (IC50) of 14 nM.

With `Cc1ccccc1Oc1cc(C(F)(F)F)ccc1C(=O)Nc1cccc(S(N)(=O)=O)c1` [Compound 47, N-(3-sulfamoylphenyl)-2-(o-tolyloxy)-4-(trifluoromethyl)benzamide], in data set [1], the “HLM: percent unchanged after 30 min” value worked out at 100%. Further, the IC50 at human Nav1.8 is 14 nM.

On to `COc1ccc(Oc2cc(C(F)(F)F)ccc2C(=O)Nc2cccc(S(N)(=O)=O)c2)c(Cl)c1` [Compound 48, 2-(2-chloro-4-methoxyphenoxy)-N-(3-sulfamoylphenyl)-4-(trifluoromethyl)benzamide], for which the “HLM: percent unchanged after 30 min” value in data set [1] came to 68%. At human Nav1.8, the IC50 was 10 nM.

Regarding `COc1ccc(Oc2cc(C(F)(F)F)ccc2C(=O)Nc2cccc(S(N)(=O)=O)c2)c(C)c1` [Compound 49, 2-(4-methoxy-2-methylphenoxy)-N-(3-sulfamoylphenyl)-4-(trifluoromethyl)benzamide], the “HLM: percent unchanged after 30 min” value in data set [1] was 57%. The molecule further yielded an IC50 against human Nav1.8 of 12 nM.

Consider `COc1ccc(Oc2cc(C(F)(F)F)ccc2C(=O)Nc2cccc(S(N)(=O)=O)c2)c(OC)c1` [Compound 50, 2-(2,4-dimethoxyphenoxy)-N-(3-sulfamoylphenyl)-4-(trifluoromethyl)benzamide], for which the “HLM: percent unchanged after 30 min” value in data set [1] is 72%. This molecule also registered an IC50 at human Nav1.8 of 8 nM.

For the molecule `NS(=O)(=O)c1cccc(NC(=O)c2ccc(C(F)(F)F)cc2Oc2ccc(OC(F)(F)F)cc2)c1` [Compound 51, N-(3-sulfamoylphenyl)-2-(4-(trifluoromethoxy)phenoxy)-4-(trifluoromethyl)benzamide], in data set [1], the “HLM: percent unchanged after 30 min” value worked out at 89%. On human Nav1.8, this molecule returned an IC50 of 14 nM.

With `COc1c(F)cccc1Oc1cc(C(F)(F)F)ccc1C(=O)Nc1cccc(S(N)(=O)=O)c1` [Compound 52, 2-(3-fluoro-2-methoxyphenoxy)-N-(3-sulfamoylphenyl)-4-(trifluoromethyl)benzamide], the “HLM: percent unchanged after 30 min” value in data set [1] is given as 81%. Also, on human Nav1.8, the IC50 came out at 11 nM.

In the case of `CC(C)Oc1ccc(Oc2cc(C(F)(F)F)ccc2C(=O)Nc2cccc(S(N)(=O)=O)c2)cc1` [Compound 53, 2-(4-isopropoxyphenoxy)-N-(3-sulfamoylphenyl)-4-(trifluoromethyl)benzamide], the “HLM: percent unchanged after 30 min” value in data set [1] is 71%. The IC50 at human Nav1.8 worked out at 26 nM.

Take `COc1cc(F)ccc1Oc1cc(OC(F)(F)F)ccc1C(=O)Nc1cccc(S(N)(=O)=O)c1` [Compound 54, 2-(4-fluoro-2-methoxyphenoxy)-N-(3-sulfamoylphenyl)-4-(trifluoromethoxy)benzamide]: the “HLM: percent unchanged after 30 min” value in data set [1] turned out to be 96%. On human Nav1.8, this molecule returned an IC50 of 5 nM.

Turning to `NS(=O)(=O)c1cccc(NC(=O)c2ccc(OC(F)(F)F)cc2Oc2ccc(F)cc2)c1` [Compound 55, 2-(4-fluorophenoxy)-N-(3-sulfamoylphenyl)-4-(trifluoromethoxy)benzamide], the “HLM: percent unchanged after 30 min” value in data set [1] was found to be 95%. The IC50 at human Nav1.8 was 9 nM.

In the case of `NS(=O)(=O)c1cccc(NC(=O)c2ccc(OC(F)(F)F)cc2Oc2ccc(F)cc2Cl)c1` [Compound 56, 2-(2-chloro-4-fluorophenoxy)-N-(3-sulfamoylphenyl)-4-(trifluoromethoxy)benzamide], in data set [1], the “HLM: percent unchanged after 30 min” value was determined as 102%. Moreover, the IC50 on human Nav1.8 worked out at 4 nM.

In the case of `COc1ccccc1Oc1cccc(C(F)(F)F)c1C(=O)Nc1cccc(S(N)(=O)=O)c1` [Compound 57, 2-(2-methoxyphenoxy)-N-(3-sulfamoylphenyl)-6-(trifluoromethyl)benzamide], the “HLM: percent unchanged after 30 min” value in data set [1] worked out at 78%. The molecule also came in with an IC50 against human Nav1.8 of 27 nM.

As to `Cc1cc(Cl)ccc1Oc1cccc(C(F)(F)F)c1C(=O)Nc1cccc(S(N)(=O)=O)c1` [Compound 58, 2-(4-chloro-2-methylphenoxy)-N-(3-sulfamoylphenyl)-6-(trifluoromethyl)benzamide], in data set [1], the “HLM: percent unchanged after 30 min” value turned out to be 107%. The IC50 against human Nav1.8 turned out to be 6 nM.

As to `Cc1c(F)cccc1Oc1cccc(C(F)(F)F)c1C(=O)Nc1cccc(S(N)(=O)=O)c1` [Compound 59, 2-(3-fluoro-2-methylphenoxy)-N-(3-sulfamoylphenyl)-6-(trifluoromethyl)benzamide], in data set [1], the “HLM: percent unchanged after 30 min” value is on record as 66%. The molecule also gave an IC50 on human Nav1.8 of 14 nM.

As to `NS(=O)(=O)c1cccc(NC(=O)c2c(Oc3ccc(OC(F)(F)F)cc3)cccc2C(F)(F)F)c1` [Compound 60, N-(3-sulfamoylphenyl)-2-(4-(trifluoromethoxy)phenoxy)-6-(trifluoromethyl)benzamide], in data set [1], the “HLM: percent unchanged after 30 min” value is given as 92%. This molecule returned an IC50 against human Nav1.8 of 9 nM.

Regarding `COc1ccc(Oc2cccc(C(F)(F)F)c2C(=O)Nc2cccc(S(N)(=O)=O)c2)cc1F` [Compound 61, 2-(3-fluoro-4-methoxyphenoxy)-N-(3-sulfamoylphenyl)-6-(trifluoromethyl)benzamide], the “HLM: percent unchanged after 30 min” value in data set [1] amounted to 68%. Besides, on human Nav1.8, half-maximal inhibition (IC50) required 28 nM.

The IC50 is the point on the concentration scale where inhibition reaches its midpoint. The low end stands for greater potency, the high end for weaker potency.
